# Experiments:
# [1] = tested on: Pendimethalin population (ROTH PEND 14) of black-grass; assay: Cross resistance test of the Pendimethalin selected line; format: in vivo, Alopecurus myosuroides; conditions: full or ¾ field rate; FIG. 18; not due to TSR (PCR of ACCases)
# Text: (§1) However, given that the two populations have no known relationship to the HS population, some of these differences could have arisen due to background genetic variation not linked to herbicide resistance. To test this, the inventors extended the proteomic comparison to two additional populations originating from the HS Rothamsted population that had undergone 5-7 years of experimentally controlled selection under a single herbicide regime, either Fenoxaprop or Pendimethalin (Supplementary Methods S1). These herbicides were used because whereas resistance to fenoxaprop can arise through both TSR- and NTSR-based mechanisms (Cocker et al., 1999), evolved tolerance to pendimethalin in black-grass is most commonly associated with enhanced detoxification (James et al., 1995). The inventors then tested these populations for cross-resistance to other herbicides at either full or ¾ field rate (Supplementary Methods S2). Despite being selected under exposure to a single herbicidal mode of action (inhibition of microtubule assembly), the Pendimethalin population was also resistant against several herbicides with ACCase mode of action (fenoxaprop, clodinafop, cycloxidim), but not ALS or cell division MOA (FIG. 18). PCR of the respective ACCases in the selected population (Marshall et al., 2013), confirmed that resistance was not due to TSR-related mechanisms.
# A black-grass population originating from Rothamsted Broadbalk experimental grounds (guaranteed herbicide free) was used as the standard Herbicide Susceptible (HS) population, collected in 2009. This was used as a standard control for two “real” NTSR populations originating from wheat field sites in Essex (Peldon) and Oxford and two experimental NTSR populations that had undergone directed selection to two types of herbicidal active ingredients (Fenoxaprop and Pendimethalin). Both experimental populations originated from the Rothamsted HS population in 2004. Further details on the selection regime to create the distinct Fenoxaprop and Pendimethalin resistant populations are provided in Supplementary Methods S1/S2. […]
# [2] = tested on: Fenoxaprop population (ROTH FEN OUT) of black-grass; assay: Cross resistance test of the Fenoxaprop selected line; format: in vivo, Alopecurus myosuroides; conditions: full or ¾ field rate; FIG. 18; no evidence of TSR
# Text: as §1, with “mechanisms. […]” for “mechanisms.”
SMILES,herbicide resistance of the Pendimethalin population [1],herbicide resistance of the population selected with fenoxaprop [2]
C#CCOC(=O)[C@@H](C)Oc1ccc(Oc2ncc(Cl)cc2F)cc1,resistant,–
CCCC(=NOCC)C1=C(O)CC(C2CCCSC2)CC1=O (stereo not shown) [cycloxidim],resistant,–
CC(Oc1ccc(Oc2nc3ccc(Cl)cc3o2)cc1)C(=O)O (stereo not shown) [fenoxaprop],resistant,only resistant toward the selecting herbicide

# Source: US20200025762A1, “NON-TARGET SITE RESISTANCE” (UNIVERSITY OF NEWCASTLE UPON TYNE, priority 2017, published 2020)
